In ChEMBL document CHEMBL1687743, “Intravenous doripenem at 500 milligrams versus levofloxacin at 250 milligrams, with an option to switch to oral therapy, for treatment of complicated lower urinary tract infection and pyelonephritis” (Antimicrob Agents Chemother, 2009):
≈ marks a conversion by molar mass, not a printed value.

Experiments:
Homo sapiens [1] = experiment: Treatment emergent adverse event in intent-to-treat patient with complicated urinary tract infection assessed as vomiting at 500 […], iv administered every 8 hrs for 10 days; assay type: organism-based; design: route intravenous; conditions: in vivo
Serratia marcescens = experiment: Antibacterial activity against Serratia marcescens isolated from patient with urinary tract infection receiving drug at 500 mg, iv administered every 8 hrs for 10 days measured after post drug therapy; assay type: functional; conditions: Urine
Enterococcus avium = experiment: Antibacterial activity against doripenem-resistant Enterococcus avium; assay type: functional
Homo sapiens [2] = experiment: Drug related treatment emergent adverse event in intent-to-treat patient with complicated urinary tract infection assessed as >=1 adverse event at 500 mg/kg, iv administered every 8 hrs for 10 days; assay type: toxicity, organism-based, Urine; design: dose 500 mg/kg, route intravenous; conditions: in vivo
Homo sapiens [3] = experiment: Treatment emergent adverse event in intent-to-treat patient with complicated urinary tract infection assessed as upper abdominal pain at 500 […], iv administered every 8 hrs for 10 days; assay type: organism-based; design: route intravenous; conditions: in vivo
Homo sapiens [4] = experiment: Treatment emergent adverse event in intent-to-treat patient with complicated urinary tract infection assessed as urinary tract infection at 500 […], iv administered every 8 hrs for 10 days; assay type: ADME, organism-based, Urine; design: route intravenous; conditions: in vivo
Homo sapiens [5] = experiment: Treatment emergent adverse event in intent-to-treat patient with complicated urinary tract infection assessed as back pain at 500 […], iv administered every 8 hrs for 10 days; assay type: organism-based; design: route intravenous; conditions: in vivo
Escherichia coli [6] = experiment: Antibacterial activity against levofloxacin-resistant Escherichia coli infected in clinically evaluable patient with UTI assessed as cure rate at 500 mg, iv administered every 8 hrs for 10 days measured at test-of-cure visit; assay type: functional
Enterococcus faecium = experiment: Antibacterial activity against Enterococcus faecium; assay type: functional
Homo sapiens [7] = experiment: Drug related treatment emergent adverse event in intent-to-treat patient with complicated urinary tract infection assessed as upper abdominal pain at 500 […], iv administered every 8 hrs for 10 days; assay type: toxicity, organism-based; design: dose 500 […], route intravenous; conditions: in vivo
Klebsiella pneumoniae = experiment: Antibacterial activity against Klebsiella pneumoniae infected in microbiologically evaluable patient with UTI assessed as cure rate at 500 mg, iv administered every 8 hrs for 10 days measured at test-of-cure visit; assay type: functional
Homo sapiens [8] = experiment: Drug related treatment emergent adverse event in intent-to-treat patient with complicated urinary tract infection assessed as nausea at 500 […], iv administered every 8 hrs for 10 days; assay type: toxicity, organism-based; design: dose 500 […], route intravenous; conditions: in vivo
Homo sapiens [9] = experiment: Treatment emergent adverse event in intent-to-treat patient with complicated urinary tract infection assessed as abdominal pain at 500 […], iv administered every 8 hrs for 10 days; assay type: ADME, organism-based, Urine; design: route intravenous; conditions: in vivo
Escherichia coli [10] = experiment: Antibacterial activity against levofloxacin-resistant Escherichia coli infected in microbiologically evaluable patient with UTI assessed as cure rate at 500 mg, iv administered every 8 hrs for 10 days measured at test-of-cure visit; assay type: functional
Homo sapiens [11] = experiment: Treatment emergent adverse event in intent-to-treat patient with complicated urinary tract infection assessed as insomnia at 500 […], iv administered every 8 hrs for 10 days; assay type: ADME, organism-based, Urine; design: route intravenous; conditions: in vivo
Homo sapiens [12] = experiment: Treatment emergent adverse event in intent-to-treat patient with complicated urinary tract infection assessed as constipation at 500 […], iv administered every 8 hrs for 10 days; assay type: ADME, organism-based; design: route intravenous; conditions: in vivo
Enterococcus faecalis = experiment: Antibacterial activity against Enterococcus faecalis; assay type: functional
Escherichia coli [13] = experiment: Antibacterial activity against Escherichia coli isolated from patient with urinary tract infection receiving drug at 500 mg, iv administered every 8 hrs for 10 days measured after post drug therapy; assay type: functional; conditions: Urine
Proteus mirabilis = experiment: Antibacterial activity against Proteus mirabilis infected in microbiologically evaluable patient with UTI assessed as cure rate at 500 mg, iv administered every 8 hrs for 10 days measured at test-of-cure visit; assay type: functional
Homo sapiens [14] = experiment: Treatment emergent adverse event in intent-to-treat patient with complicated urinary tract infection assessed as hypokalemia at 500 […], iv administered every 8 hrs for 10 days; assay type: ADME, organism-based, Urine; design: route intravenous; conditions: in vivo
Staphylococcus aureus = experiment: Antibacterial activity against Staphylococcus aureus; assay type: functional
Homo sapiens [15] = experiment: Drug related treatment emergent adverse event in intent-to-treat patient with complicated urinary tract infection assessed as headache at 500 […], iv administered every 8 hrs for 10 days; assay type: toxicity, organism-based, Urine; design: dose 500 […], route intravenous; conditions: in vivo
Homo sapiens [16] = experiment: Drug related treatment emergent adverse event in intent-to-treat patient with complicated urinary tract infection assessed as phlebitis at 500 […], iv administered every 8 hrs for 10 days; assay type: toxicity, organism-based, Urine; design: dose 500 […], route intravenous; conditions: in vivo
Homo sapiens [17] = experiment: Treatment emergent adverse event in intent-to-treat patient with complicated urinary tract infection assessed as >=1 adverse event at 500 mg/kg, iv administered every 8 hrs for 10 days; assay type: organism-based, Urine; design: dose 500 mg/kg, route intravenous; conditions: in vivo
Homo sapiens [18] = experiment: Treatment emergent adverse event in intent-to-treat patient with complicated urinary tract infection assessed as asymptomatic bacteriuria at 500 […], iv administered every 8 hrs for 10 days; assay type: ADME, organism-based, Urine; design: route intravenous; conditions: in vivo
Homo sapiens [19] = experiment: Treatment emergent adverse event in intent-to-treat patient with complicated urinary tract infection assessed as nausea at 500 […], iv administered every 8 hrs for 10 days; assay type: organism-based; design: route intravenous; conditions: in vivo
Escherichia coli [20] = experiment: Antibacterial activity against Escherichia coli infected in microbiologically evaluable patient with UTI assessed as cure rate at 500 mg, iv administered every 8 hrs for 10 days measured at test-of-cure visit; assay type: functional
Homo sapiens [21] = experiment: Treatment emergent adverse event in intent-to-treat patient with complicated urinary tract infection assessed as headache at 500 […], iv administered every 8 hrs for 10 days; assay type: ADME, organism-based, Urine; design: route intravenous; conditions: in vivo
Homo sapiens [22] = experiment: Treatment emergent adverse event in intent-to-treat patient with complicated urinary tract infection assessed as diarrhea at 500 […], iv administered every 8 hrs for 10 days; assay type: ADME, organism-based; design: route intravenous; conditions: in vivo
Homo sapiens [23] = experiment: Treatment emergent adverse event in intent-to-treat patient with complicated urinary tract infection assessed as phlebitis at 500 […], iv administered every 8 hrs for 10 days; assay type: organism-based; design: route intravenous; conditions: in vivo
Homo sapiens [24] = experiment: Drug related treatment emergent adverse event in intent-to-treat patient with complicated urinary tract infection assessed as diarrhea at 500 […], iv administered every 8 hrs for 10 days; assay type: toxicity, organism-based; design: dose 500 […], route intravenous; conditions: in vivo

C[C@@H](O)[C@H]1C(=O)N2C(C(=O)O)=C(S[C@@H]3CN[C@H](CNS(N)(=O)=O)C3)[C@H](C)[C@H]12 [DORIPENEM]
Activity (Homo sapiens [1]): 5.1% | MIC (Serratia marcescens): 0.5 µg/mL (≈ 1.19 µM) | MIC (Enterococcus avium): 128 µg/mL (≈ 304 µM) | Activity (Homo sapiens [2]): 28.2% | Activity (Homo sapiens [3]): 4.5% | Activity (Homo sapiens [4]): 3.7% | Activity (Homo sapiens [5]): 2.1% | Activity (Escherichia coli [6]): 86% | MIC (Enterococcus faecium): ≥ 16 µg/mL | Activity (Homo sapiens [7]): 0.5% | Activity (Klebsiella pneumoniae): 83.3% | Activity (Homo sapiens [8]): 2.9% | Activity (Homo sapiens [9]): 1.9% | Activity (Escherichia coli [10]): 55% | Activity (Homo sapiens [11]): 3.7% | Activity (Homo sapiens [12]): 5.9% | MIC (Enterococcus faecalis): ≥ 16 µg/mL | MIC (Escherichia coli [13]): 0.06 µg/mL (≈ 0.143 µM) | Activity (Proteus mirabilis): 69.6% | Activity (Homo sapiens [14]): 2.1% | MIC (Staphylococcus aureus): ≥ 16 µg/mL | Activity (Homo sapiens [15]): 4.5% | Activity (Homo sapiens [16]): 2.4% | Activity (Homo sapiens [17]): 64% | Activity (Homo sapiens [18]): 3.7% | Activity (Homo sapiens [19]): 4.3% | Activity (Escherichia coli [20]): 84.4% | Activity (Homo sapiens [21]): 15.7% | Activity (Homo sapiens [22]): 5.6% | Activity (Homo sapiens [23]): 3.7% | Activity (Homo sapiens [24]): 4%
